# Experimental data published in ChEMBL document CHEMBL4002554, “Terpenoids from Melampodium perfoliatum” (2016).
# Tests used:
# Mus musculus [1] = test: Anti-inflammatory activity in TPA-induced CD1 mouse ear acute inflammation model assessed as reduction in TPA-induced ear edema at 1 mg/ear administered topically 10 mins prior to TPA challenge measured after 4 hrs relative to control; type: functional
# Mus musculus [2] = test: Anti-inflammatory activity in TPA-induced CD1 mouse ear acute inflammation model assessed as reduction in TPA-induced ear edema administered topically 10 mins prior to TPA challenge measured after 4 hrs; type: functional
SMILES,inhibition (INH) (Mus musculus [1]),ID50 (Mus musculus [2]),inhibition (Mus musculus [2])
C=C1C(=O)O[C@@H]2/C=C(\C)[C@@H]3O[C@@H]3/C=C(/C(=O)OC)[C@H](OC(=O)[C@]3(C)O[C@@H]3C)[C@@H](OC(=O)[C@]3(C)O[C@@H]3C)[C@@H]12,<50%,,
C=C1C(=O)O[C@H]2[C@H]1[C@H](OC(=O)[C@]1(C)O[C@@H]1C)[C@@H](OC(=O)[C@]1(C)O[C@@H]1C)/C(C(=O)OC)=C\CC[C@@]1(C)O[C@H]21,<50%,,
CC1(C)[C@H]2CC[C@@]34C[C@@H](CC[C@H]3[C@]2(C)CC[C@@H]1O)[C@@](O)(CO)C4,<50%,,
CC(C)=CC(=O)C[C@@]12O[C@@H]1CC[C@]1(C)O[C@](C)(C(O)CO)CC[C@@H]1OC2=O (some centres not stated),,1.49 µmol,Dose-dependent effect
COc1ccc2c(c1)c(CC(=O)O)c(C)n2C(=O)c1ccc(Cl)cc1 [INDOMETHACIN],,0.24 µmol,
C=C1C(=O)O[C@@H]2/C=C(\C)[C@@H]3O[C@@H]3/C=C(/C(=O)OC)[C@H](O)[C@@H](OC(=O)[C@]3(C)O[C@@H]3C)[C@@H]12 [MELAMPODIN A],,1.14 µmol,Dose-dependent effect
C=C1C(=O)O[C@@H]2/C=C(\C)CC/C=C(/C(=O)OC)[C@H](O)[C@@H](OC(=O)/C(C)=C\C)[C@@H]12,,0.56 µmol,Dose-dependent effect
C=C1C(=O)O[C@@H]2/C=C(\C)CC/C=C(/C(=O)OC)[C@H](O)[C@@H](OC(=O)[C@]3(C)O[C@@H]3C)[C@@H]12,,1.15 µmol,Dose-dependent effect
